{"source": "PubChem BioAssay AID2060492", "about": "(Molecular Pharmacology Branch, DTP, NCI, 2025)", "test_system": "695427-040-R-J1-PDC complex spheroids, viability percent T/C", "assay": "Anticancer human tumor 695427-040-R-J1-PDC patient-derived colon adenocarcinoma cell line growth inhibition [GQUAD]", "details": "for IC50: curve of first compound; for viability, T/C: stronger effect = lower value", "outline": "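Viability of tumor cells grown as complex spheroids with endothelial and stromal cells, exposed to drug combinations. Top concentration at or near clinical Cmax (else 10 microM), diluted in half-log increments.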", "key": {"[1]": {"details": "second compound 0.0316 µM, first compound 0.0316 µM"}, "[2]": {"details": "second compound 0.0316 µM, first compound 0.1 µM"}, "[3]": {"details": "second compound 0.0316 µM, first compound 0.316 µM"}, "[4]": {"details": "second compound 0.0316 µM, first compound 1 µM"}, "[5]": {"details": "second compound 0.0316 µM, first compound 3.16 µM"}, "[6]": {"details": "second compound 0.0316 µM, first compound 10 µM"}, "[7]": {"details": "second compound 0.1 µM, first compound 0.0316 µM"}, "[8]": {"details": "second compound 0.1 µM, first compound 0.1 µM"}, "[9]": {"details": "second compound 0.1 µM, first compound 0.316 µM"}, "[10]": {"details": "second compound 0.1 µM, first compound 1 µM"}, "[11]": {"details": "second compound 0.1 µM, first compound 3.16 µM"}, "[12]": {"details": "second compound 0.1 µM, first compound 10 µM"}, "[13]": {"details": "second compound 0.316 µM, first compound 0.0316 µM"}, "[14]": {"details": "second compound 0.316 µM, first compound 0.1 µM"}, "[15]": {"details": "second compound 0.316 µM, first compound 0.316 µM"}, "[16]": {"details": "second compound 0.316 µM, first compound 1 µM"}, "[17]": {"details": "second compound 0.316 µM, first compound 3.16 µM"}, "[18]": {"details": "second compound 0.316 µM, first compound 10 µM"}, "[19]": {"details": "second compound 1 µM, first compound 0.0316 µM"}, "[20]": {"details": "second compound 1 µM, first compound 0.1 µM"}, "[21]": {"details": "second compound 1 µM, first compound 0.316 µM"}, "[22]": {"details": "second compound 1 µM, first compound 1 µM"}, "[23]": {"details": "second compound 1 µM, first compound 3.16 µM"}, "[24]": {"details": "second compound 1 µM, first compound 10 µM"}, "[25]": {"details": "second compound 3.16 µM, first compound 0.0316 µM"}, "[26]": {"details": "second compound 3.16 µM, first compound 0.1 µM"}, "[27]": {"details": "second compound 3.16 µM, first compound 0.316 µM"}, "[28]": {"details": "second compound 3.16 µM, first compound 1 µM"}, "[29]": {"details": "second compound 3.16 µM, first compound 3.16 µM"}, "[30]": {"details": "second compound 3.16 µM, first compound 10 µM"}, "[31]": {"details": "second compound 10 µM, first compound 0.0316 µM"}, "[32]": {"details": "second compound 10 µM, first compound 0.1 µM"}, "[33]": {"details": "second compound 10 µM, first compound 0.316 µM"}, "[34]": {"details": "second compound 10 µM, first compound 1 µM"}, "[35]": {"details": "second compound 10 µM, first compound 3.16 µM"}, "[36]": {"details": "second compound 10 µM, first compound 10 µM"}}}
{"compound": "CC1COCCN1c1cc(C2(O)CC3CCC(C2)O3)c2cnn(-c3ccn[nH]3)c2n1", "note": "(centres undefined) + Cc1[nH]c2ccc(F)cc2c1-c1nc2c3cccnc3c3ncccc3c2[nH]1;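 further: spheroids exposed to compounds for seven days before readout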", "values": [{"measurement": "IC50", "setting": "second compound 0.0316 µM", "result": 735, "unit": "nM"}, {"measurement": "IC50", "setting": "second compound 0.1 µM", "result": 590, "unit": "nM"}, {"measurement": "IC50", "setting": "second compound 0.316 µM", "result": 569, "unit": "nM"}, {"measurement": "IC50", "setting": "second compound 1 µM", "result": 290, "unit": "nM"}, {"measurement": "IC50", "setting": "second compound 3.16 µM", "result": 253, "unit": "nM"}, {"measurement": "IC50", "setting": "second compound 10 µM", "result": 455, "unit": "nM"}, {"measurement": "viability, T/C", "setting": "[1]", "result": 83.2, "unit": "%"}, {"measurement": "viability, T/C", "setting": "[2]", "result": 84.2, "unit": "%"}, {"measurement": "viability, T/C", "setting": "[3]", "result": 65.7, "unit": "%"}, {"measurement": "viability, T/C", "setting": "[4]", "result": 42.5, "unit": "%"}, {"measurement": "viability, T/C", "setting": "[5]", "result": 36, "unit": "%"}, {"measurement": "viability, T/C", "setting": "[6]", "result": 24.6, "unit": "%"}, {"measurement": "viability, T/C", "setting": "[7]", "result": 93.8, "unit": "%"}, {"measurement": "viability, T/C", "setting": "[8]", "result": 77.5, "unit": "%"}, {"measurement": "viability, T/C", "setting": "[9]", "result": 70.4, "unit": "%"}, {"measurement": "viability, T/C", "setting": "[10]", "result": 31.4, "unit": "%"}, {"measurement": "viability, T/C", "setting": "[11]", "result": 37.6, "unit": "%"}, {"measurement": "viability, T/C", "setting": "[12]", "result": 28.1, "unit": "%"}, {"measurement": "viability, T/C", "setting": "[13]", "result": 85.2, "unit": "%"}, {"measurement": "viability, T/C", "setting": "[14]", "result": 64, "unit": "%"}, {"measurement": "viability, T/C", "setting": "[15]", "result": 60.6, "unit": "%"}, {"measurement": "viability, T/C", "setting": "[16]", "result": 41.7, "unit": "%"}, {"measurement": "viability, T/C", "setting": "[17]", "result": 37.5, "unit": "%"}, {"measurement": "viability, T/C", "setting": "[18]", "result": 30.2, "unit": "%"}, {"measurement": "viability, T/C", "setting": "[19]", "result": 86.2, "unit": "%"}, {"measurement": "viability, T/C", "setting": "[20]", "result": 55.8, "unit": "%"}, {"measurement": "viability, T/C", "setting": "[21]", "result": 55.2, "unit": "%"}, {"measurement": "viability, T/C", "setting": "[22]", "result": 33.6, "unit": "%"}, {"measurement": "viability, T/C", "setting": "[23]", "result": 41, "unit": "%"}, {"measurement": "viability, T/C", "setting": "[24]", "result": 21.2, "unit": "%"}, {"measurement": "viability, T/C", "setting": "[25]", "result": 67, "unit": "%"}, {"measurement": "viability, T/C", "setting": "[26]", "result": 55.8, "unit": "%"}, {"measurement": "viability, T/C", "setting": "[27]", "result": 50.9, "unit": "%"}, {"measurement": "viability, T/C", "setting": "[28]", "result": 34.2, "unit": "%"}, {"measurement": "viability, T/C", "setting": "[29]", "result": 33.2, "unit": "%"}, {"measurement": "viability, T/C", "setting": "[30]", "result": 17.4, "unit": "%"}, {"measurement": "viability, T/C", "setting": "[31]", "result": 59, "unit": "%"}, {"measurement": "viability, T/C", "setting": "[32]", "result": 59.8, "unit": "%"}, {"measurement": "viability, T/C", "setting": "[33]", "result": 61.7, "unit": "%"}, {"measurement": "viability, T/C", "setting": "[34]", "result": 27.9, "unit": "%"}, {"measurement": "viability, T/C", "setting": "[35]", "result": 30.4, "unit": "%"}, {"measurement": "viability, T/C", "setting": "[36]", "result": 22.3, "unit": "%"}]}
{"compound": "CC1COCCN1c1cc(C2(S(C)(=N)=O)CC2)nc(-c2ccnc3[nH]ccc23)n1", "note": "(centres undefined) + Cc1[nH]c2ccc(F)cc2c1-c1nc2c3cccnc3c3ncccc3c2[nH]1", "values": [{"measurement": "IC50", "setting": "second compound 0.0316 µM", "result": "> 10000", "unit": "nM"}, {"measurement": "IC50", "setting": "second compound 0.1 µM", "result": "> 10000", "unit": "nM"}, {"measurement": "IC50", "setting": "second compound 0.316 µM", "result": "> 10000", "unit": "nM"}, {"measurement": "IC50", "setting": "second compound 1 µM", "result": "> 10000", "unit": "nM"}, {"measurement": "IC50", "setting": "second compound 3.16 µM", "result": "> 10000", "unit": "nM"}, {"measurement": "IC50", "setting": "second compound 10 µM", "result": "> 10000", "unit": "nM"}, {"measurement": "viability, T/C", "setting": "[1]", "result": 99.3, "unit": "%"}, {"measurement": "viability, T/C", "setting": "[2]", "result": 101, "unit": "%"}, {"measurement": "viability, T/C", "setting": "[3]", "result": 87.6, "unit": "%"}, {"measurement": "viability, T/C", "setting": "[4]", "result": 73.9, "unit": "%"}, {"measurement": "viability, T/C", "setting": "[5]", "result": 76.9, "unit": "%"}, {"measurement": "viability, T/C", "setting": "[6]", "result": 57.4, "unit": "%"}, {"measurement": "viability, T/C", "setting": "[7]", "result": 103, "unit": "%"}, {"measurement": "viability, T/C", "setting": "[8]", "result": 72.5, "unit": "%"}, {"measurement": "viability, T/C", "setting": "[9]", "result": 102, "unit": "%"}, {"measurement": "viability, T/C", "setting": "[10]", "result": 89.3, "unit": "%"}, {"measurement": "viability, T/C", "setting": "[11]", "result": 73.2, "unit": "%"}, {"measurement": "viability, T/C", "setting": "[12]", "result": 62.2, "unit": "%"}, {"measurement": "viability, T/C", "setting": "[13]", "result": 87.9, "unit": "%"}, {"measurement": "viability, T/C", "setting": "[14]", "result": 80.1, "unit": "%"}, {"measurement": "viability, T/C", "setting": "[15]", "result": 84.8, "unit": "%"}, {"measurement": "viability, T/C", "setting": "[16]", "result": 84.9, "unit": "%"}, {"measurement": "viability, T/C", "setting": "[17]", "result": 74.6, "unit": "%"}, {"measurement": "viability, T/C", "setting": "[18]", "result": 61.5, "unit": "%"}, {"measurement": "viability, T/C", "setting": "[19]", "result": 70.5, "unit": "%"}, {"measurement": "viability, T/C", "setting": "[20]", "result": 71.7, "unit": "%"}, {"measurement": "viability, T/C", "setting": "[21]", "result": 70.3, "unit": "%"}, {"measurement": "viability, T/C", "setting": "[22]", "result": 97, "unit": "%"}, {"measurement": "viability, T/C", "setting": "[23]", "result": 83, "unit": "%"}, {"measurement": "viability, T/C", "setting": "[24]", "result": 65.8, "unit": "%"}, {"measurement": "viability, T/C", "setting": "[25]", "result": 61.9, "unit": "%"}, {"measurement": "viability, T/C", "setting": "[26]", "result": 84, "unit": "%"}, {"measurement": "viability, T/C", "setting": "[27]", "result": 75.9, "unit": "%"}, {"measurement": "viability, T/C", "setting": "[28]", "result": 81.8, "unit": "%"}, {"measurement": "viability, T/C", "setting": "[29]", "result": 71.9, "unit": "%"}, {"measurement": "viability, T/C", "setting": "[30]", "result": 61.2, "unit": "%"}, {"measurement": "viability, T/C", "setting": "[31]", "result": 66, "unit": "%"}, {"measurement": "viability, T/C", "setting": "[32]", "result": 67.9, "unit": "%"}, {"measurement": "viability, T/C", "setting": "[33]", "result": 80.8, "unit": "%"}, {"measurement": "viability, T/C", "setting": "[34]", "result": 82, "unit": "%"}, {"measurement": "viability, T/C", "setting": "[35]", "result": 67.6, "unit": "%"}, {"measurement": "viability, T/C", "setting": "[36]", "result": 54.3, "unit": "%"}]}
